Reference: patent US20090023733A1, “Piperidine Derivatives, Their Process for Preparation, Their Use as Therapeutic Agents and Pharmaceutical Compositions Containing Them” (priority 2006, published 2009)

Columns and labels:
[1] = target: T1, human recombinant CCR3 receptors (Homo sapiens, UniProt P51677); experiment: Compound affinity at human recombinant CCR3 receptors by competition of [3H]-4-(2,4-dichloro-3-methylphenoxy)-1'-[4-(methylsulfonyl)benzoyl]-1,4'-bipiperidine, CHO-K1 cell membranes; format: binding; details: mean pKi (Cheng-Prussof correction of pIC50), minimum of 2 experiments, recombinant human CCR3, 2 nM radioligand, 2 h at 37° C.
T1 construct: expressed in transfected cells
T1 sequence (P51677 1-355): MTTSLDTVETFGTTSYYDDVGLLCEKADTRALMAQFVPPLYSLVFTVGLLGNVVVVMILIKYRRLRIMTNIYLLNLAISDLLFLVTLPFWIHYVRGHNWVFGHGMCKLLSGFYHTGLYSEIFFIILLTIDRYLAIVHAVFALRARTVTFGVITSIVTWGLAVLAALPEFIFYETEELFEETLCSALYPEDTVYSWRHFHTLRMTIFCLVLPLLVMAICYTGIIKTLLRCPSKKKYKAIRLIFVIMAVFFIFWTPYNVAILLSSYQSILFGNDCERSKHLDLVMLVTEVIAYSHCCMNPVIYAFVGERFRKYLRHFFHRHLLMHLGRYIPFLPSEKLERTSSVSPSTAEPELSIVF
Procedure: Determination of Compound Affinity at Human Recombinant CCR3 Receptors Assessed By Competition Of [^3H]-4-(2,4-dichloro-3-methylphenoxy)-1′-[4-(methylsulfonyl)benzoyl]-1,4′-bipiperidine for CHO—K1 Cell Membranes In Vitro
Membranes, prepared from CHO—K1 cells stably expressing recombinant human CCR3, suspended in assay buffer (50 mM Tris-Base, pH 7.4; containing sodium chloride (100 mM) and magnesium chloride (2 mM)) were incubated in the presence of 2 nM [^3H]-4-(2,4-dichloro-3-methylphenoxy)-1′-[4-(methylsulfonyl)benzoyl]-1,4′-bipiperidine, along with vehicle (1% (v/v) DMSO), 4-(4-chloro-3-methylphenoxy)-1′-[2-(methylsulfonyl)benzoyl]-1,4′-bipiperidine (to define non-specific binding) or test compound for 2 h at 37° C. in round bottomed 96-well plates. The plates were then filtered onto GF/B filter plates, pre-soaked for 1 hour in plate-coating solution (0.3% (w/v) polyethylenimine, 0.2% (w/v) BSA in de-ionised water), using a 96-well plate Tomtec cell harvester. Four washes (250 μL) with wash buffer (50 mM Tris-Base, pH 7.4 containing sodium chloride (500 mM) and magnesium chloride (2 mM)) were performed at 4° C. to remove unbound radioactivity. Plates were dried and MicroScint-O (50 μL) was added to each well. The plates were sealed (TopSeal A) and filter-bound radioactivity was measured with a scintillation counter (TopCount, Packard BioScience) using a 1 minute counting protocol.
Specific binding was determined from values of the control wells minus the values for the NSB wells for each assay plate. pIC50 values were calculated using a four parameter logistic fit (where pIC50 is defined as the negative logarithm of the concentration of compound required for 50% reduction in specific [^3H]-4-(2,4-dichloro-3-methylphenoxy)-1′-[4-(methylsulfonyl)benzoyl]-1,4′-bipiperidine binding). Data were presented as mean pKi values (calculated by applying a Cheng-Prussof correction to pIC50 values) from a minimum of 2 separate experiments.

[2] = Determination of intrinsic clearance with human liver microsomes; format: in vitro ADME; details: human liver microsomes 1 mg protein/ml, NADPH, pH 7.4; CLint=ln 2/T1/2
Procedure: Determination of Intrinsic Clearance with Human Liver Microsomes
Frozen human liver microsomes (BD Gentest, Oxford) were defrosted and were then diluted with 0.1 M pH 7.4 phosphate buffer at 4° C. to 1 mg protein/ml. 0.45 mL aliquots of the microsome suspension were dispensed into flat-bottomed vials (1 per compound) and were allowed to come to room temperature (5 min). During the warming time, 5 μL of solution of each test compound (typically 100 μM in DMSO) was dispensed into separate vials resulting in a final DMSO concentration of 1%. 50 μL of a 10 mM solution of NADPH in phosphate buffer ([…] pH 7.4, 37° C.) was added to each vial to initiate metabolism.
50 μL Aliquots of the mixtures were removed at measured intervals and were immediately quenched by addition to 100 μL of methanol cooled in ice. The quenched samples were kept cold (at −20° C. or less) for at least 1 h and were then centrifuged to remove protein.
The supernatant solution was analysed using quantitative LCMS for the presence of test compound. From the concentrations of test compound at different time points a T1/2 may be calculated which may be converted to an intrinsic clearance using the equation: CLint=ln 2/T1/2.

| Ki [1] [nM] | CLint scaled at 1 µM [2] [mL/min/kg] | SMILES |
| --- | --- | --- |
| 251 | < 3 | O=C(CSc1ccccc1C(=O)O)NC1CCN(Cc2ccc(Cl)c(Cl)c2)CC1 [Example 1, 2-[(2-{[1-(3,4-Dichlorobenzyl)piperidin-4-yl]amino}-2-oxoethyl)thio]benzoic acid] |
| 12.6 | < 3 | O=C(CSc1cccc(C(=O)O)c1)NC1CCN(Cc2ccc(Cl)c(Cl)c2)CC1 [Example 4, 3-[(2-{[1-(3,4-Dichlorobenzyl)piperidin-4-yl]amino}-2-oxoethyl)thio]benzoic acid] |
| 6.31 | < 3 | O=C(CSc1ccc(C(=O)O)cc1)NC1CCN(Cc2ccc(Cl)c(Cl)c2)CC1 [Example 7, 4-[(2-{[1-(3,4-Dichlorobenzyl)piperidin-4-yl]amino}-2-oxoethyl)thio]benzoic acid] |
| 12.6 | 30 | O=C(CSc1ccc(C(=O)O)cc1CN1CCOCC1)NC1CCN(Cc2ccc(Cl)c(Cl)c2)CC1 [Example 18, 4-[(2-{[1-(3,4-Dichlorobenzyl)piperidin-4-yl]amino}-2-oxoethyl)thio]-3-(morpholin-4-ylmethyl)benzoic acid] |
